Test system in one data set: not given
Assay: not given
Details: not given
Consider `N#Cc1cccc(-c2ccc3c(c2)C2(CCCCC2)C(=S)N3)c1` [Example 2, 3-(1′,2′-Dihydro-2′-thioxospiro[cyclohexane-1,3′-[3H]indol]-5′-yl)benzonitrile], for which the melting point was > 231 °C (dec.).

`CC1(C)C(=S)Nc2ccc(-c3coc(C#N)c3)cc21` [Example 18, 4-(3,3-Dimethyl-2-thioxo-2,3-dihydro-1H-indol-5-yl)-2-furonitrile] displayed a melting point of 188 to 191 °C.

Take `ON=C1Nc2ccc(-c3ccc(F)cc3)cc2C12CCCCC2` [Example 47, 5′-(4-Fluorophenyl)spiro[cyclohexane-1,3′-[3H]indol]-2′(1′H)-one Oxime]: the melting point is 205 to 208 °C.

In turn, `COc1cccc(-c2ccc3c(c2)C2(CCCCC2)C(=NO)N3)c1` [Example 49, 5′-(3-Methoxyphenyl)spiro[cyclohexane-1,3′-[3H]indol]-2′(1′H)-one Oxime] yielded a melting point of 101 to 104 °C.

Consider `N#Cc1cccc(-c2ccc3c(c2)C2(CCCCC2)C(=NO)N3)c1` [Example 51, 5′-(3-Cyanophenyl)spiro[cyclohexane-1,3′-[3H]indol]-2′(1′H)-one Oxime], for which the melting point was in the range of 198 to 200 °C.

Another data set relates to rat uterine decidualization. Description: Rat decidualization assay. As to conditions: s.c.; average of the dose-response curves.
For the compound `C#C[C@]1(O)CC[C@H]2[C@@H]3CCC4=CC(=O)CC[C@@H]4[C@H]3C(=C)C[C@@]21CC` [3-Ketodesogestrel], the “Estimated average EC50 (decidual response)” value was 0.10 mg/kg.

A word on the melting point: it is the temperature of the solid-liquid transition.

The values are drawn from patent US6583145B1, “Thio-oxindole derivatives” (Wyeth, priority 1999, dated 2003).
